± gives the standard deviation of the averaged measurements.
What was measured:
[1] = test system: U-2 OS; test: relative cell count vs DMSO (cell painting) (fraction of DMSO control); higher = more cells remaining (less cytotoxic); conditions: 24 h
Procedure, shortened: (§1)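 U-2 OS cells were seeded at about 1,500 per well in 384-well plates and treated by pin tool for 24 h at 37 °C, usually at six 2-fold concentrations from 20 μM to 625 nM. After staining with MitoTracker, concanavalin A, phalloidin, wheat germ agglutinin, Hoechst and SYTO 14, plates were imaged on an Opera Phenix and features were extracted with CellProfiler and normalized to DMSO cells on the same plate. The activity score is the Mahalanobis distance from DMSO wells, and cell count is given relative to DMSO wells. Each value is the mean of four replicate plates.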

[2] = test system: U-2 OS; test: cell painting activity score (Mahalanobis distance from DMSO wells); higher = stronger morphological phenotype; conditions: 24 h
Procedure, shortened: as §1

[3] = test system: U-2 OS; test: intracellular GSH:GSSG ratio (calculated); higher = more reduced glutathione pool; conditions: 24 h
Procedure: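 Intracellular glutathione in U-2 OS cells after 24 h compound treatment at 5, 10 and 20 uM (some at 40 and 80 uM). Total glutathione and GSSG were measured with the GSH/GSSG-Glo kit, and the GSH:GSSG ratio was calculated. Mean of five technical replicate plates.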

[4] = test system: U-2 OS; test: AUC of culture confluence over time (live-cell imaging) (AUC (confluence % x time)); higher = more confluent culture (less growth inhibition)
Procedure, shortened: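 Confluence of U-2 OS cells in F-12K medium with 10% FBS was tracked by live-cell imaging. Cells were seeded at 750 per well in 384-well plates and treated 24 h later by pin tool, with most compounds at 20, 10 and 5 μM and 0.2% DMSO. Cells were kept at 37 °C and imaged every 4 h for up to 60 h on an Incucyte S3 with a 10x objective. The value is the area under the confluence-versus-time curve.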

[5] = test system: U-2 OS; test: cell viability (CellTiter-Glo) relative to DMSO (% of control); higher = more viable; conditions: 24 h
Procedure: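 Cell viability of U-2 OS cells by CellTiter-Glo after 24 h compound treatment at 5, 10 and 20 uM (some at 40 and 80 uM), measured in parallel with the glutathione assay, as percent of DMSO control. Five technical replicate plates, averaged.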

[6] = test system: U-2 OS; test: total intracellular glutathione (GSH + GSSG) relative to DMSO (% of control); higher = more glutathione; conditions: 24 h
Procedure: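 Total intracellular glutathione (GSH + GSSG) in U-2 OS cells by GSH/GSSG-Glo after 24 h compound treatment at 5, 10 and 20 uM (some at 40 and 80 uM), as percent of DMSO control. Five technical replicate plates, averaged.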

Row | SMILES | relative cell count ([1]; 0.625 µM) | relative cell count ([1]; 1.25 µM) | relative cell count ([1]; 2.5 µM) | relative cell count ([1]; 5 µM) | relative cell count ([1]; 10 µM) | relative cell count ([1]; 20 µM) | relative cell count ([1]; 40 µM) | relative cell count ([1]; 80 µM) | cell painting activity score ([2]; 0.625 µM) | cell painting activity score ([2]; 1.25 µM) | cell painting activity score ([2]; 2.5 µM) | cell painting activity score ([2]; 5 µM) | cell painting activity score ([2]; 10 µM) | cell painting activity score ([2]; 20 µM) | cell painting activity score ([2]; 40 µM) | cell painting activity score ([2]; 80 µM) | intracellular GSH:GSSG ratio ([3]; 5 µM) | intracellular GSH:GSSG ratio ([3]; 10 µM) | intracellular GSH:GSSG ratio ([3]; 20 µM) | intracellular GSH:GSSG ratio ([3]; 40 µM) | AUC of culture confluence over time ([4]; 5 µM) | AUC of culture confluence over time ([4]; 10 µM) | AUC of culture confluence over time ([4]; 20 µM) | AUC of culture confluence over time ([4]; 40 µM) | AUC of culture confluence over time ([4]; 80 µM) | cell viability ([5]; 5 µM) | cell viability ([5]; 10 µM) | cell viability ([5]; 20 µM) | cell viability ([5]; 40 µM) | cell viability ([5]; 80 µM) | intracellular GSH:GSSG ratio ([3]; 80 µM) | total intracellular glutathione ([6]; 5 µM) | total intracellular glutathione ([6]; 10 µM) | total intracellular glutathione ([6]; 20 µM)
1 | CC(Cc1ccc(O)c(O)c1)C(C)Cc1ccc(O)c(O)c1 (stereo not drawn) | 0.839 | 0.852 | 0.896 | 0.816 | 0.835 | 0.359 | 0.261 | 0.228 | 4.39 | 8.68 | 11.8 | 13.1 | 15.4 | 12.1 | 17.4 | 22.6 | 24 | 47.5 | 22.3 | 22.5 | 42.1 | 39.8 | 43.8 | 28.7 | 19.1 | 101 ± 4 | 104 ± 8.2 | 100 ± 5.4 | 87.1 ± 6.5 | 0.624 ± 0.073 |  |  |  | 
2 | CCCCCCCCCCCC1=C(O)C(=O)C=C(O)C1=O | 0.898 | 0.848 | 0.944 | 0.907 | 0.478 | 0.08 | 0.237 | 0.332 | 4.78 | 4.55 | 7.31 | 4.7 | 8.2 | 25 | 22.2 | 21.8 | 32.2 | 27.4 | 35.5 | 15.8 |  |  |  |  |  | 102 ± 5.8 | 97.6 ± 2.5 | 98.7 ± 5.4 | 70.1 ± 25 | 93.3 ± 4.2 | 31.4 |  |  | 
3 | COc1cc(/C=C/c2cc(/C=C/c3ccc(O)c(OC)c3)n(-c3ccc(C(=O)[O-])cc3)n2)ccc1O.[Na+] | 1.04 | 1.08 | 1.05 | 1.07 | 1.09 | 1.05 | 0.866 | 0.789 | 7.1 | 4.98 | 6.19 | 4.45 | 6.38 | 6.87 | 5.98 | 9 | 40 | 33 | 36.1 | 30.8 | 45.1 | 42.2 | 42.1 | 27.3 | 25.3 | 101 ± 2.3 | 95.6 ± 2.5 | 93.6 ± 3.2 | 89.6 ± 3.4 | 68.4 ± 3.8 | 11.8 |  |  | 
4 | O=C1C(Cl)=C(NCCN2CCOCC2)C(=O)c2ncccc21 | 0.808 | 0.755 | 0.474 | 0.317 | 0.049 | 0.0399 |  |  | 5.61 | 10.4 | 14.7 | 21.2 | 26.9 | 26.9 |  |  |  |  |  |  | 16.5 | 14.9 | 12 |  |  | 0.868 ± 0.067 | 0.657 ± 0.091 | 0.819 ± 0.053 |  |  |  | 1.89 ± 0.18 | 2.12 ± 0.18 | 1.91 ± 0.3

Source: the supplement of paper PMC10011410
